# Data taken from patent US20130150243A1, “METHOD OF CONTROLLING PEST” (SUMITOMO CHEMICAL COMPANY, LIMITED, priority 2011, published 2013).
# Experiments:
# Assay type in all cases: in vivo
# Aphis gossypii = test: Insecticidal activity (controlling value) on cotton grown from treated seeds; conditions: soil treated with flumioxazin 50 or 75 g/ha, six days after release of Aphis gossypii
# Experimental: For evaluating the insecticidal activity, life or death of an insect at investigation is determined, and a controlling value is obtained by the following equation:
# Controlling value(%)=100×(1−T/C)
# C: Number of insects at observation of non-treated section T: Number of insects at observation of treated-section
# (§1) Into a plastic cup having an internal diameter of 96 millimeters and a height of 44 millimeters are placed 25 microliters of a clothianidin suspension (suspension containing 600 g/L clothianidin, trade name: NipsIt INSIDE, manufactured by Valent USA) and 50 grains of cotton seeds. By shaking this plastic cup with a hand, the clothianidin suspension is attached to the cotton seeds.
# Fifteen days after seeding with the cotton seeds, a cotton leaf piece on which 20 larvae and 20 adults of Aphis gossypii inhabited is placed in the pot, and the whole plant is covered with a nylon cloth.
# (§2) Six days after release of Aphis gossypii, the insecticidal activity, herbicidal activity and phytotoxicity are determined, and high weed controlling activity (>80) and high Aphis gossypii control value (>70) are obtained, and the phytotoxicity on the cotton is “no damage”. […]
# cotton = test: Phytotoxicity on crop; parameters: key: when phytotoxicity is hardly perceived, it is represented by “no damage”; when slight phytotoxicity is perceived, it is represented by “slight”; when moderate phytotoxicity is perceived, it is represented by “moderate”; when severe phytotoxicity is perceived, it is represented by “severe”; conditions: soil treated with flumioxazin 50 or 75 g/ha 15 days before seeding
# Excerpt: For evaluation of phytotoxicity on a crop, when phytotoxicity is hardly perceived, it is represented by “no damage”, when slight phytotoxicity is perceived, it is represented by “slight”, when moderate phytotoxicity is perceived, it is represented by “moderate”, and when severe phytotoxicity is perceived, it is represented by “severe”. The “phytotoxicity” evaluated herein is a damage characteristic determined to be caused by the treated compound, and is clearly discriminated from a damage characteristic caused by a pest.
# as §1
# Into a pot made of a plastic having an internal diameter of 177 millimeters and a height of 140 millimeters is packed a soil in which each of about 500 milligrams of seeds of Conyza canadensis, Amaranthus palmeri and Chenopodium album are mixed. A liquid of a flumioxazin water dispersible granule (water dispersible granule containing 51% of flumioxazin, trade name: Valor SX, manufactured by Valent USA) diluted with water is uniformly sprayed on the soil surface of this pot with a sprayer, so that flumioxazin is applied in an amount of 50 or 75 g/ha. Fifteen days after spraying, the cotton seeds are seeded at 5 grains per pot.
# Six days after release of Aphis gossypii, the insecticidal activity, herbicidal activity and phytotoxicity are determined, and high weed controlling activity (>80) and high Aphis gossypii control value (>70) are obtained, and the phytotoxicity on the cotton is “no damage”.
# Into a plastic cup having an internal diameter of 96 millimeters and a height of 44 millimeters are placed 25 microliters of a thiamethoxam preparation (preparation containing 600 g/L thiamethoxam, trade name: Cruiser 5FS, manufactured by Syngenta) and 50 grains of cotton seeds. By shaking this plastic cup with a hand, the thiamethoxam preparation is attached to the cotton seeds.
# [1] = system: Conyza canadensis, Amaranthus palmeri and Chenopodium album; test: Herbicidal activity in pot test, soil surface treated before seeding with treated cotton seeds; conditions: assessed 21 days after seeding
# Excerpt: Evaluation of herbicidal activity is classified into 0 to 100, letting no or little difference when the state of germination or growth of a test weed at investigation is compared with that of non-treatment to be “0”, and letting complete withering of a test weed or complete inhibition of germination or growth to be “100”.
# as §1
# Into a pot made of a plastic having an internal diameter of 177 millimeters and a height of 140 millimeters is packed a soil in which each of about 500 milligrams of seeds of Conyza canadensis, Amaranthus palmeri and Chenopodium album are mixed. […]
# as §2
# [2] = Example 1: clothianidin-treated cotton seeds
# [3] = Example 2: thiamethoxam-treated cotton seeds
Structure (SMILES),"Aphis gossypii control value (Aphis gossypii; Example 1: clothianidin suspension (NipsIt INSIDE, 600 g/L) 25 microliters per 50 cotton seeds)",phytotoxicity on the cotton (cotton; [2]),"weed controlling activity (herbicidal activity, scale 0 to 100) ([1]; Example 1: flumioxazin (Valor SX) 50 or 75 g/ha on soil surface 15 days before seeding, cotton seeds treated with clothianidin)","weed controlling activity (herbicidal activity, scale 0 to 100) ([1]; Example 2: flumioxazin (Valor SX) 50 or 75 g/ha on soil surface 15 days before seeding, cotton seeds treated with thiamethoxam)",phytotoxicity on the cotton (cotton; [3]),"Aphis gossypii control value (Aphis gossypii; Example 2: thiamethoxam preparation (Cruiser 5FS, 600 g/L) 25 microliters per 50 cotton seeds)"
CN/C(=N\[N+](=O)[O-])NCc1cnc(Cl)s1 [clothianidin],> 70%,no damage,,,,
C#CCN1C(=O)COc2cc(F)c(N3C(=O)C4=C(CCCC4)C3=O)cc21 [flumioxazin],,no damage,> 80,> 80,no damage,
CN1COCN(Cc2cnc(Cl)s2)/C1=N\[N+](=O)[O-] [thiamethoxam],,,,,no damage,> 70%
